Test results from US9751833B2, “Antimicrobial biguanide metal complexes” (Smith & Nephew PLC, priority 2005, dated 2017).

Experiments:
[1] = test system: Pseudomonas aeruginosa NCIMB 8626; assay: Zone of inhibition, seeded Mueller-Hinton agar plug-hole assay; assay type: cell-based; conditions: 10 mg compound + 200 ul sterile water per 8 mm plug hole, 37° C., 24 hours, triplicates averaged
Experimental: (§1) Pseudomonas aeruginosa NCIMB 8626 and Staphylococcus aureus NCTC 10788 were harvested. Serial 1:10 dilutions were performed to give a final concentration of 10^8 bacteria/ml. Further dilutions were made for an inoculum count, down to […], with the number of bacteria/ml determined using the pour plate method.
(§2) Two large assay plates were then set up and 140 ml of Mueller-Hinton agar was added evenly to the large assay plates and allowed to dry (15 minutes). A further 140 ml of agar was seeded with the corresponding test organism and poured over the previous agar layer. Once the agar had set (15 minutes), the plate was dried at 37° C. for 30 minutes with the lid removed. 8 mm plugs were removed from the plate by biopsy punch.
(§3) In triplicate, 10 mg of the compounds prepared in Examples 1-3 were placed onto each plug hole followed by 200 ul sterile water. The plates were then sealed and incubated at 37° C. for 24 hours. The size of the microbial, including bacterial, zone cleared was measured using a Vernier calliper gauge, triplicates were averaged: […]

[2] = test system: Staphylococcus aureus NCTC 10788; assay: as above; assay type: cell-based; conditions: 10 mg compound + 200 ul sterile water per 8 mm plug hole, 37° C., 24 hours, triplicates averaged
Experimental: as §1, §2, §3

Substance | Zone of Inhibition [1] [mm] | Zone of Inhibition [2] [mm]
Silver(III) Chlorhexidine (1,1′-hexamethylenebis[5-(p-chlorophenyl)biguanide] Complex [Example 1] | 5.4 | 6.4
Silver(III) o-tolybiguanide Complex [Example 3] | 7.4 | 8.4
